{"source": "patent US20020155172A1", "about": "“Methods and compounds for decreasing cell toxicity or death” (priority 2000, published 2002)", "key": {"[1]": {"test_system": "HeLa cells co-transfected with a luciferase construct together with Q79-GFP", "assay": "Protein synthesis by luciferase activity in Q79 expressing HeLa cells", "format": "cell-based"}, "[2]": {"test_system": "HeLa cells transfected with a Q79-GFP construct", "assay": "Polyglutamine-induced cell death in HeLa cells", "format": "cell-based", "settings": "Q79-GFP, compound added six hours after transfection, 1 nM to 100 μM (FIG. 4A: 100 μM), seventy-two hours post-transfection", "description": "FIG. 4A is two graphs showing the effect of Congo red, tetracyclines, and sulfated polyanions on polyglutamine-induced cell death in, each graph representing a separate experiment. HeLa cells transfected with a Q79-GFP construct were treated with 100 μM of minocycline (mino), Chrysamine G (CG), Rolitetracycline (Ro), iota carrageenan (iota), dextran 500 (dextran), or Congo red (CR), six hours after transfection. The amount of cell death was determined 48 hours after transfection by morphological criteria as previously described (Sanchez et al., supra).\nIn a cell expressing Q79-GFP polypeptides, polyglutamine aggregates are formed and the cell dies by apoptosis (Sanchez, supra). Cell viability was determined by morphological criteria characteristic of apoptosis, including cell blebbing, shrinking. Total cell lysates and tissue homogenates were obtained using Buffer A: 1% triton in PBS, containing 10 μg/ml DNAse and protease inhibitors; leupeptin 20 μg/ml, aprotinin 20 u/ml, and PMSF 100 mM. The proteins were separated by 12% SDS/PAGE and transferred to PVDF Immobilon membrane (Millipore, Inc). Antibodies used included rabbit polyclonal antibodies; EM48 (Li et al., Mol. Neurobiol. 20:111-124, 2000) anti-heat shock proteins 40 and 70 (Stressgen, Co.), and rat monoclonal anti-caspase-8 antibody.\nThese effects were determined by visual inspection of GFP-positive cells under an inverted fluorescence microscope. In addition, the occurrence of apoptosis of these transfected cell samples was confirmed by staining the cells with trypan blue, propidium iodide, or Hoescht 33342 to examine the cellular or nuclear morphology.\nCompounds that disrupt other types of aggregates, for example, amyloid fibril aggregates were tested for their ability to disrupt pre-formed polyglutamine aggregates. HeLa Cells were transfected with a Q79-GFP construct. Six hours later, Iota-carrageenan, dextran, minocycline, rolitetracycline, and Chrysamine G (1 nM to 100 μM) were each incubated with the cells. Seventy-two hours post-transfection, the cells were evaluated for the occurrence of cell death, by visual inspection under an inverted fluorescence microscope."}, "[3]": {"test_system": "Q79-GFP aggregates", "assay": "Decrease of pre-formed Q79-GFP aggregates in vitro", "format": "biochemical", "settings": "100 μM each; visually examined", "description": "Q79-GFP was expressed and purified from bacteria using standard molecular biology techniques. These fusion proteins form aggregates in vitro which can be viewed under an inverted fluorescence microscope. The Q79-GFP aggregates were administered Congo red (1 nM to 100 μM) and the ability of Congo red to decrease the aggregate was visually assessed.\nThis assay was also carried out on Q79-GFP aggregates that were administered compounds known to disrupt other types of aggregates, for example, beta-amyloid fibril aggregates. The Q79-GFP aggregates were administered Iota-carrageenan, dextran, minocycline, rolitetracycline, or Chrysamine G Congo red (100 μM each), and visually examined for the effect of each compound on disruption of the aggregate, as well as the density and size of the aggregates."}, "[4]": {"test_system": "GST-Q81 beads", "assay": "Chemical absorption assay, Q81", "format": "binding", "settings": "25 μM of each (FIG. 6B)", "description": "FIG. 6B is a graph of the percent of binding of various compounds to amyloid-like Q81 aggregates measured using a chemical absorption assay. The anti-amyloid compounds minocycline, Chrysamine G, Rolitetracycline, iota carrageenan, dextran 500 (dextran), or Congo red (25 μM of each) were pre-absorbed with Q81 GST recombinant protein and the percentage absorbance of the compound remaining in the supernatant after absorption with GST-Q81 beads is plotted on the y-axis.\nTo determine if Congo red and its derivatives directly bind to expanded polyglutamine aggregates, we designed a chemical absorption assay. This assay measures the remaining Congo red in the supernatant after incubating the supernatant with GST-tagged polyglutamine beads, and removing the GST-polyglutamine beads by centrifugation. This assay was carried out as follows. Recombinant protein GST-Q19, GST-Q62, and GST-Q81 (containing 19, 62, and 81 polyglutamines, respectively) was purified from E. coli by glutathione beads. After several washes with PBS containing protease inhibitors, the beads were allowed to settle to the bottom of the tube at 24° C. for 10 minutes. The polyglutamine-bound beads were aliquoted and diluted with two volumes of 10 μg/ml of Congo red in PBS. The beads were mixed and centrifuged at 15,000 rpm for 2 minutes and the supernatant was removed and diluted 1:100. The percentage absorbance of the compound remaining in the supernatant after absorption with the GST-polyQ beads was then detected. In addition, Congo red- or PBS-only treated polyglutamine polypeptide bead pellets were washed three times with 100 volumes of PBS and then the protein was separated by 12% polyacrylamide gels and immunoblotted as mentioned above. Some blots were used for immunostaining with anti-polyglutamine antibody (EM48). Other blots were left unstained to visualize the red color of Congo red that entered the gel along with the polyglutamine protein.\nBinding of the above-identified compounds to amyloid-like Q81 aggregates was also assessed by a chemical absorption assay. The compounds indicated in FIG. 19 (25 μM of each) were pre-absorbed with a Q81 GST recombinant protein and the percentage absorbance of the compound remaining in the supernatant after absorption with GST-Q81 beads was then detected."}, "[5]": {"test_system": "non-transfected HeLa cells", "assay": "Total cellular protein degradation", "format": "cell-based", "settings": "Congo red 100 μM, ZVAD 100 μM, MG132 10 μM; H3-tyrosine release, 0 to 180 minutes", "description": "FIG. 8C is a graph of the effect of effect of Congo red, ZVAD, or the proteosome inhibitor MG132 on total cellular protein degradation in non-transfected HeLa cells.\nTo rule out the possibility that Congo red may have an effect on protein degradation in general, we tested the effect of Congo red on proteosome degradation. Rates of total cellular protein degradation experiments, from cells seeded in 12 well dishes at 2×10^4, treated with Congo red (100 μM), ZVAD (100 μM), or the proteosome inhibitor MG132 (10 μM) and labeled with 5 μCi/ml of H^3-tyrosine for 1 hour. One hundred microliter culture medium aliquots were collected at 0, 30, 60, 90, 120, and 180 minute time points, and the levels of H^3-tyrosine were determined using an LS6000 scintillation counter (Beckman, Co)."}, "[6]": {"test_system": "cells; primary neurons", "assay": "Compound toxicity in cells", "format": "cell-based"}, "[7]": {"settings": "Q79 expressing HeLa cells, various concentrations"}}, "note": "Where a name gives a salt, the structure may show the parent alone. Read-outs that look alike come from different tables or passages of the source. Peptide text beside a SMILES is read from it. * marks the point of attachment. Cbz = O=C(OCc1ccccc1)*", "data": [{"compound": "C[C@H]1O[C@@H](O[C@H]2[C@@H](O)C[C@H](O[C@H]3[C@@H](O)C[C@H](O[C@H]4CC[C@@]5(C)[C@H](CC[C@@H]6[C@@H]5C[C@@H](O)[C@]5(C)[C@@H](C7=CC(=O)OC7)CC[C@]65O)C4)O[C@@H]3C)O[C@@H]2C)C[C@H](O)[C@@H]1O", "note": "[digoxin]", "values": [{"measurement": "protection against inhibition of protein synthesis (luciferase activity)", "setting": "[1]; […], various concentrations", "value": "found to protect against inhibition of protein synthesis"}]}, {"compound": "CCCCCCCCC(=O)NCc1ccc(O)c(OC)c1", "note": "[N-vanillylnonanmide]", "values": [{"measurement": "protection against inhibition of protein synthesis (luciferase activity)", "setting": "[1]", "value": "found to protect against inhibition of protein synthesis"}]}, {"compound": "CN(C)c1ccc(O)c2c1C[C@H]1C[C@H]3[C@H](N(C)C)C(O)=C(C(N)=O)C(=O)[C@@]3(O)C(O)=C1C2=O", "note": "[minocycline]", "values": [{"measurement": "Polyglutamine-induced Cell Death", "setting": "[2]", "value": "+++ (Each + indicates approximately 20% cell death.)"}]}, {"compound": "dextran", "values": [{"measurement": "dissolution or disruption of pre-formed expanded polyglutamine repeat aggregates", "setting": "[3]", "value": "detected only after Congo red addition and daunomycin addition"}, {"measurement": "binding to 81-repeat polyglutamine polypeptide", "setting": "[4]", "value": "binds to expanded polyglutamines"}, {"measurement": "Polyglutamine-induced Cell Death", "setting": "[2]", "value": "+++ (Each + indicates approximately 20% cell death.)"}]}, {"compound": "C[C@H]1C[C@@H]2[C@H]([C@@H](O)C[C@@]3(C)[C@H]2CC[C@]3(O)C(=O)COC(=O)CCC(=O)O)[C@@]2(C)C=CC(=O)C=C12", "note": "[6a-methylprednisolone 21-hemisuccinate]", "values": [{"measurement": "protection against inhibition of protein synthesis (luciferase activity)", "setting": "[1]; [7]", "value": "found to protect against inhibition of protein synthesis"}]}, {"compound": "CCC1(c2ccccc2)C(=O)NCNC1=O", "note": "[primidone]", "values": [{"measurement": "protection against inhibition of protein synthesis (luciferase activity)", "setting": "[1]; [7]", "value": "found to protect against inhibition of protein synthesis"}]}, {"compound": "CC(C)C[C@@H](C=O)NC(=O)[C@H](CC(C)C)NC(=O)[C@H](CC(C)C)NC(=O)OCc1ccccc1", "note": "[MG132] (Cbz-Leu-Leu-Leu-aldehyde)", "values": [{"measurement": "general protein degradation", "setting": "[5]", "value": "inhibited"}]}, {"compound": "N[C@@H]1CONC1=O", "note": "[D-cycloserine]", "values": [{"measurement": "protection against inhibition of protein synthesis (luciferase activity)", "setting": "[1]; [7]", "value": "found to protect against inhibition of protein synthesis"}]}, {"compound": "R-(−)-deprenyl hydrochloride", "values": [{"measurement": "protection against inhibition of protein synthesis (luciferase activity)", "setting": "[1]; […], various concentrations", "value": "found to protect against inhibition of protein synthesis"}]}, {"compound": "CC(C)C[C@H]1C(=O)N2CCC[C@H]2[C@]2(O)O[C@](NC(=O)[C@@H]3C=C4c5cccc6[nH]c(Br)c(c56)C[C@H]4N(C)C3)(C(C)C)C(=O)N12", "note": "[bromocriptine mesylate]", "values": [{"measurement": "protection against inhibition of protein synthesis (luciferase activity)", "setting": "[1]; […], various concentrations", "value": "found to protect against inhibition of protein synthesis"}]}, {"compound": "Nc1ccc(/N=N/c2ccccc2)c(N)n1", "note": "[phenazopyridine]", "values": [{"measurement": "protection against inhibition of protein synthesis (luciferase activity)", "setting": "[1]; [7]", "value": "found to protect against inhibition of protein synthesis"}]}, {"compound": "Cn1cnc([N+](=O)[O-])c1Sc1ncnc2nc[nH]c12", "note": "[azathioprine]", "values": [{"measurement": "protection against inhibition of protein synthesis (luciferase activity)", "setting": "[1]; [7]", "value": "found to protect against inhibition of protein synthesis"}]}, {"compound": "COc1cccc2c1C(=O)c1c(O)c3c(c(O)c1C2=O)C[C@@](O)(C(C)=O)C[C@@H]3O[C@H]1C[C@H](N)[C@H](O)[C@H](C)O1", "note": "[daunomycin, reference compound]", "values": [{"measurement": "dissolution or disruption of pre-formed expanded polyglutamine repeat aggregates", "setting": "[3]", "value": "dissolution or disruption of pre-formed expanded polyglutamine repeat aggregates were detected"}, {"measurement": "compound toxicity in cells", "setting": "[6]", "value": "highly toxic to cells"}]}, {"compound": "COc1ccc2cc(CCC(C)=O)ccc2c1", "note": "[nabumetone]", "values": [{"measurement": "protection against inhibition of protein synthesis (luciferase activity)", "setting": "[1]; [7]", "value": "found to protect against inhibition of protein synthesis"}]}, {"compound": "iota-carrageenan", "values": [{"measurement": "dissolution or disruption of pre-formed expanded polyglutamine repeat aggregates", "setting": "[3]", "value": "detected only after Congo red addition and daunomycin addition"}, {"measurement": "binding to 81-repeat polyglutamine polypeptide", "setting": "[4]", "value": "binds to expanded polyglutamines"}, {"measurement": "Polyglutamine-induced Cell Death", "setting": "[2]", "value": "+++ (Each + indicates approximately 20% cell death.)"}]}, {"compound": "O=C(O)c1cc(/N=N/c2ccc(-c3ccc(/N=N/c4ccc(O)c(C(=O)O)c4)cc3)cc2)ccc1O", "note": "[Chrysamine G]", "values": [{"measurement": "dissolution or disruption of pre-formed expanded polyglutamine repeat aggregates", "setting": "[3]", "value": "detected only after Congo red addition and daunomycin addition"}, {"measurement": "binding to 81-repeat polyglutamine polypeptide", "setting": "[4]", "value": "binds to expanded polyglutamines"}, {"measurement": "Polyglutamine-induced Cell Death", "setting": "[2]", "value": "+++ (Each + indicates approximately 20% cell death.)"}]}, {"compound": "C[C@]12CCC(=O)C=C1CC[C@@H]1[C@@H]2[C@@H](O)C[C@@]2(C)[C@H]1CC[C@]2(O)C(=O)CO", "note": "[hydrocortisone]", "values": [{"measurement": "protection against inhibition of protein synthesis (luciferase activity)", "setting": "[1]; [7]", "value": "found to protect against inhibition of protein synthesis"}]}, {"compound": "O=C(CCCN1CCC(O)(c2ccc(Cl)cc2)CC1)c1ccc(F)cc1", "note": "[haloperidol]", "values": [{"measurement": "protection against inhibition of protein synthesis (luciferase activity)", "setting": "[1]; [7]", "value": "found to protect against inhibition of protein synthesis"}]}, {"compound": "neostigmine methyl ether", "values": [{"measurement": "protection against inhibition of protein synthesis (luciferase activity)", "setting": "[1]; […], various concentrations", "value": "found to protect against inhibition of protein synthesis"}]}, {"compound": "CN(C)[C@@H]1C(O)=C(C(=O)NCN2CCCC2)C(=O)[C@@]2(O)C(O)=C3C(=O)c4c(O)cccc4[C@@](C)(O)[C@H]3C[C@@H]12", "note": "[rolitetracycline]", "values": [{"measurement": "Polyglutamine-induced Cell Death", "setting": "[2]", "value": "+++ (Each + indicates approximately 20% cell death.)"}]}, {"compound": "[O]=[Mg]", "note": "[magnesium oxide]", "values": [{"measurement": "protection against inhibition of protein synthesis (luciferase activity)", "setting": "[1]; […], various concentrations", "value": "found to protect against inhibition of protein synthesis"}]}]}
